Measurements as given in a melting point compilation (Tetko et al.; mined from patent text by program, amines drawn as free bases though some values may be those of a salt).

Row | SMILES | melting point [°C]
1 | COc1cc(-c2nc(-n3cncn3)c3c(C)c(C#N)sc3n2)cc(OC)c1OC | 236 to 240
2 | CC(=O)C1CCC2C3CCC4CC(C)(O)CCC4(C)C3CCC12C (configuration not stated) | 103
3 | CCOC(=O)C1=C(C)NC(c2cscn2)=NC1c1cccc(OC)c1 (configuration not stated) | 140 to 142
4 | COc1ccc2cc([C@H](C)C(=O)OCC[Si](C)(C)C)ccc2c1 | 81.5 to 82.5
5 | COCCNC(=O)C(NC(=O)OCc1ccccc1)c1ccc2c(c1)CCO2 (configuration not stated) | 90 to 110
6 | CS(=O)(=O)N1CCC(C(CS(=O)(=O)c2ccc(Oc3ccc(OC(F)(F)F)cc3)cc2)N(O)C=O)CC1 (configuration not stated) | 178 to 179
7 | COc1cc(N2CCN(C(=O)Cn3nc(C#N)c4cccnc43)CC2)ccc1Cl | 183 to 185
8 | C=CCOc1cc(-n2c(OC)nc(C(F)(F)F)cc2=O)c(F)cc1Cl | 103 to 104
9 | CC[C@H](COC)n1cc(Br)nc(N2CCc3cc(OC)cc(C)c32)c1=O | 116 to 118
10 | C=C(CC(C)C)C(=O)NCCCCCC(N)=O | 76 to 82
11 | Nc1nc(Cl)nc(C2CC2)n1 | 139 to 142
12 | CC(C)CCC1(c2ccccc2)CC=CC(=O)O1 (configuration not stated) | 134 to 136
13 | OCc1ccnc(Br)c1 | 63.3 to 64.4
14 | COC(=O)CCCC(=O)c1ccc(OCCCC/C=C/c2ccc(OC)cc2)c(O)c1 | 78 to 80
15 | Cc1cc(C)c(F)cc1F | 30 to 31
16 | COC(=O)c1ccccc1S(=O)(=O)NC(=O)Nc1nc(F)cc(OC(F)(F)F)n1 | 157 to 161
17 | COc1ccc(CCNC(=O)CCC2(c3ccc(OC)c(OC)c3)SCCCS2)cc1OC | 135 to 136
18 | CC(C)NC(=O)c1nc(Cl)c(Cl)[nH]1 | 150
19 | Cc1nc2c(N)nc(-c3ccncc3)nc2[nH]1 | > 310
20 | CC(=O)OCc1nc2c([N+](=O)[O-])cc(Br)cc2n1C | 143 to 145

Row | SMILES | melting point [°C]
21 | CSCC[C@@H](NC(=O)OC(C)(C)C)C(=O)Oc1c(Cl)c(Cl)c(Cl)c(Cl)c1Cl | 133 to 134
22 | CC1(C2CCCC2)Cc2cc(OCC(=O)O)c(Cl)c(Cl)c2C1O (configuration not stated) | 129 to 131
23 | O=C(CN1CCN(C(=O)Nc2ccc(C(F)(F)F)cc2)CC1)N1CCC2(CC1)Cn1cc([N+](=O)[O-])nc1O2 | 153 to 155
24 | CCN(CC(C)Nc1c(C)cccc1C)C(C)=O (configuration not stated) | 58 to 60
25 | O=C(Nc1ccc(-n2ccnc2)cc1)Nc1ccc(C(F)(F)F)cc1 | 209 to 213
26 | Cc1cccc(C(=O)O)c1OCc1ccc(C(F)(F)F)cc1 | 104 to 106
27 | N#Cc1cc(C(=O)Nc2cncnc2Cl)ccc1Cl | 189 to 190
28 | CCCCCCCCNC(=O)c1cc(C(C)(C)C)c(O)c(C(C)(C)C)c1 | 133 to 135
29 | CCOC(=O)C1=C(C2CC2)Nc2n[nH]cc2C1c1ccccc1Br (configuration not stated) | 168 to 170
30 | O=C(NCCC1CCCCC1)c1cc(-c2ncc(Cl)cc2C(=O)O)ccc1Cl | 208 to 211
31 | Cc1ccc(OC2=C(Oc3ccc([N+](=O)[O-])cc3)C(F)(F)C(F)(F)C2(F)F)cc1 | 72 to 76
32 | N#Cc1ncc(F)cc1OC1SCC(O)C(O)C1O (configuration not stated) | 94
33 | CCCc1cccc(N2CC(=O)NC(=O)N2)c1 | 188 to 190
34 | O=C(O)CCCc1cccc(CNC(=O)C2Cc3ccccc3N2S(=O)(=O)c2ccc(-c3cccc(C(F)(F)F)c3)cc2)c1 (configuration not stated) | 76
35 | COc1ccc(C(O)CNCCN)cc1 (configuration not stated) | 68
36 | FC(F)(F)C(F)(F)C(F)(F)c1nc(-c2ccc(OCCCn3ccnc3)cc2)no1 | 60 to 60.5
37 | CC(Oc1ccc(Oc2ncc(Cl)cc2Cl)cc1)C(=O)N1CCCO1 (configuration not stated) | 106 to 108
38 | CC(CC(=O)OC(C)C)N=c1sc2ccccc2s1 (configuration not stated) | 44
39 | Cc1nc2cccc(OCC(C)C)c2c(N)c1C(=O)O | 204
40 | CC(=O)C(O)C1OC(Sc2ncc(Cl)cn2)C(O)(C(C)=O)C(O)(C(C)=O)C1(O)C(C)=O (configuration not stated) | 172

Row | SMILES | melting point [°C]
41 | Cc1cccc2c1C(=O)N(CO)S2(=O)=O | 196 to 198
42 | O=C1NCCN1C1CCCc2ccccc21 (configuration not stated) | 134 to 140
43 | CC1=C(C(=O)OC(C)C)C(c2cccc([N+](=O)[O-])c2)c2c(nc(N3CCOCC3)nc2N2CCOCC2)N1 (configuration not stated) | 229
44 | CCOC(=O)c1cnc(O)c2c(C)n[nH]c12 | 310
45 | CS(=O)(=O)Nc1ccc(F)c(C(=O)C[N+](=O)[O-])c1 | 174 to 176
46 | CC(C)(C)OC(=O)N1CC(CCl)c2c1ccc1cc(C#N)ccc21 (configuration not stated) | 171 to 172
47 | Cc1ccc(C)c(Cc2c3ccc(C(C)(C)C)cc3c(Cc3cc(C)ccc3C)c3ccc(C(C)(C)C)cc23)c1 | 273 to 275
48 | CCOC(=O)CC(c1cccnc1)N1CCN(CCCOc2ccc(C#N)cc2)C(=O)C1=O (configuration not stated) | 110 to 112
49 | CCOC(=O)C(Cc1c[nH]c2ccccc12)(NC=O)C(=O)OCC | 179 to 180
50 | C=C(CC1(C)C(=O)CCC1=O)C1=CCCc2cc(OC)ccc21 | 81 to 82
51 | CC(C)(C)c1ccc(SC(CCl)S(=O)(=O)c2ccccc2)cc1 (configuration not stated) | 67 to 69
52 | CC(C(O)c1ccc2c(c1)CCCS2)N1CCC(NC(=O)c2ccccc2)CC1 (configuration not stated) | 200 to 201
53 | C/C(=N\O)[C@H]1CC[C@H]2[C@@H]3CCC4=CC(=O)CC[C@]4(C)[C@H]3CC[C@]12C | 220 to 221
54 | Nc1ccc(C2CCOCC2)cc1 | 122
55 | CCc1ccc(Nc2c(C(=O)NOCCO)ccc(F)c2F)c(Cl)c1 | 142 to 145
56 | CN1c2ccc(C=C(c3ccccc3)c3ccccc3)cc2Sc2cc(C=C(c3ccccc3)c3ccccc3)ccc21 | 233 to 241
57 | CC(C)(O)CNCCN(C1CCNCC1)S(=O)(=O)c1ccc(Nc2nccc(Nc3ccc(F)cc3)n2)cc1 | 120
58 | O=C(Cc1ccncc1)c1ccc(Cl)cc1 | 95.5 to 97.3
59 | O=C(O)CCC/C=C\C[C@H]1[C@@H]2CC[C@@H](C2)[C@@H]1NC(=O)c1ccc(S(=O)(=O)n2cccc2)s1 | 113 to 114

Now from value to compound:

Row | melting point [°C] | SMILES
60 | 48 to 49 | N#Cc1ncccc1CCc1ccc(F)cc1
61 | 130 | NCCN1CCC(Nc2nc3ccccc3n2Cc2ccccn2)C1 (configuration not stated)
62 | 74 to 76 | COc1ncnc(N2CCCC2)c1Cc1cccc(F)c1
63 | 224 to 226 | Fc1cccc(Cl)c1CSc1nc2cnccc2[nH]1
64 | 183 | O=c1[nH]c2ccccc2n1CCCN1CCN(C(c2ccc(Cl)cc2)c2cccnc2)CC1 (configuration not stated)
65 | 93.7 to 95.7 | CCOC(=O)c1cnc2ccc(OC)cc2c1Cl
66 | 204 to 206 | O=C1CC(c2ccc(Cl)cc2)CC(=O)N1c1ccncc1
67 | 255 to 257 | O=c1c2c(Cc3ccccc3)n[nH]c2c2ccccc2n1-c1ccccc1
68 | 219 to 220 | COc1ccc(-c2coc3ccc(C(=O)NNC(C)=O)cc23)cc1
69 | 142 to 143 | COc1nccnc1NS(=O)(=O)c1cccc(F)c1
70 | 221 to 222 | O=C(NCc1ccccn1)c1nc(-c2ccccc2)c(-c2ccc(=O)[nH]n2)s1
71 | 123 to 125 | CC(C)Cc1nc2c(N)nc3ccccc3c2s1
72 | 142 | CN(C(=O)CSc1nccc(-c2ccccn2)n1)c1ccc(Cl)cc1
73 | 70 | CN(CCCNc1ncc(Cc2ccc(F)cc2)c(=O)[nH]1)c1ccccn1
74 | 88 to 90 | CC(C)(NSc1nc2ccccc2s1)c1ccccc1
75 | 91 to 92 | CC(C)c1oc(C=Cc2ccccc2)nc1CO
76 | 91.3 to 91.8 | COc1ccc(C=CC(=O)c2ccccc2Br)c(OC)c1
77 | 153 to 155 | Clc1ccc2c(c1)C(c1ccccn1)=NCc1ccccc1-2
78 | 153 to 155 | Cc1c(OCC(F)(F)F)ccnc1CSc1nc2cc(CO)ccc2[nH]1
79 | 91 to 92 | C=C(C)C(=O)N1c2ccccc2Sc2ccc(OC)cc21
80 | 242 to 244 | CCC(C)Oc1ccccc1-c1nc2ccc(C(=O)O)cc2c(=O)[nH]1 (configuration not stated)
81 | 104 | COc1csc(C=CC(=O)c2ccccc2)c1

Row | melting point [°C] | SMILES
82 | 139 | NC(=O)[C@@H](N)CN(c1ccccc1)c1ncccn1
83 | 225 to 228 | O=C(CCC1c2ccccc2-c2ccccc21)Nc1ccc(C(=O)O)c(O)c1
84 | 126 to 128 | COc1ccc(C2=CCC(N3CCN(Cc4ccccc4)CC3)CC2)cc1 (configuration not stated)
85 | 97 to 100 | CC1(C)Cc2c(F)cccc2C(c2cnc3ccccc3c2)=N1
86 | 179 to 183 | Cn1cc(C(O)CO)c2c3c(c(-c4ccccc4Cl)cc21)C(=O)NC3=O (configuration not stated)
87 | 192 to 193 | N#Cc1cc(=O)c2c(o1)c1ccccc1n2-c1ccccc1
88 | 275 | O=C(O)c1cnc2c(F)c(F)ccc2c1
89 | 180 to 182 | CC(C)(C)c1ccc(Nc2nnc(Cc3cnc(O)c(-c4ccco4)c3)c3ccccc23)cc1
90 | 202 | COc1ccc2oc3ccccc3c2c1C(=O)Nc1cc(Cl)ccc1Cl
91 | 173 to 174 | CCC(=C(c1ccc(O)cc1)c1ccc(O)cc1)c1cccc(-c2c(C)noc2C)c1
92 | 85 to 87 | Cc1c(SCCCSc2nc3ccccc3[nH]2)ccnc1CSc1nc2ccccc2[nH]1
93 | > 260 | O=C1c2ccccc2C(=O)c2sc(-c3ccc(CO)o3)nc21
94 | 269 to 271 | O=C1NCc2cccnc2N1c1ccccc1
95 | 251 to 253 | Cc1c(C)c2c(c(C)c1NC(=O)c1ccc(F)cc1)C(c1ccc(C(C)C)cc1)C(C)(C)O2 (single isomer, unassigned; (+))
96 | 177 to 179 | N#Cc1ccc2c(c1)ncn2-c1cccc(I)c1
97 | 129 to 131 | CC(C)(C)OC(=O)NCc1ccc(-n2c(-c3cccnc3N)nc3cc(Br)cnc32)cc1
98 | 59 to 61 | CC1(C)COC(C(C)(C)Oc2ccc(Cl)cc2)=N1
99 | 182 to 184 | CC(C)(C)n1c(=O)c2c(-c3nc(C4CC4)no3)ncn2c2ccccc21
100 | 135 to 138 | CSc1ccc2c(c1)C(Cl)c1ccccc1C=C2 (configuration not stated)
101 | 130 to 131 | N#CCCNC(=O)c1cccc(-c2cccc3oc(Cc4ccc(F)c(Cl)c4)cc23)c1
102 | 186 to 189 | CC(C)(C)NCC(O)COc1ccccc1-c1ccc(=S)[nH]n1 (configuration not stated)
